Like-named read-outs stand apart in the source and are kept apart here.
Assays:
[1] = system: MDCK-MDR^1 cells (P-glycoprotein); test: Bidirectional MDCK-MDR1 cell permeability; type: in vitro ADME, canine
Procedure: MDCK-MDR^1 cells were grown to confluence for 5-10 days on 1-μm filters in 24-well plates {Hilgers, 1990}. Aliquots of DMSO stocks were diluted into Hank's balanced salt solution (HBSS), pH 7.4, containing […] to give 10-μM solute concentration. The solute containing donor solutions were transferred to either the apical or basolateral chamber of the permeability diffusion apparatus. Receiver solutions consisted of HBSS (pH 7.4) containing 25 mM HEPES+0.05% PS80. Sequential samples of transported solute were taken at 20-min intervals using an automated liquid handling platform. The concentration of transported solute during each sampling interval was determined by HPLC/UV/MS. Permeability coefficients were calculated for each sampling interval. The average and standard deviation from the intervals are reported. Mass balance in the system was ascertained by comparing the sum of total transported solute and remaining donor solute with the starting mass of solute and is expressed as a percentage of donor solute at time zero. […] In the event of mass balance less than 70%, the cell monolayers were extracted with ACN and analyzed for the solute of interest. Determinations were conducted in duplicate.

[2] = Metabolite identification in human, mouse, rat and dog liver microsomes; type: in vitro ADME
Procedure: Samples were injected onto a BetaBasic C18 column and eluted with a gradient elution of mobile phase B (0.1% formic acid in ACN) from 5% to 95% over 30 min. For IND24-containing samples, the transitions monitored were 344→226 (parent); 360→226 and 360→242 (monohydroxylation); and 376→242 and 376→258 (dihydroxylation). […] Plasma and brain homogenate samples from FVB mice in single-dose (10 mg/kg) pharmacokinetic studies were similarly scanned to detect potential hydroxylated metabolites.
Metabolites were separated on a Kinetex 100-Å column (2.6 μm, 100×2.1 mm, Phenomenex, Torrance, Calif.) at ambient temperature. […]
The Orbitrap mass analyzer was calibrated according to the manufacturer's directions using a mixture of caffeine, Met-Arg-Phe-Ala (MRFA) peptide and Ultramark 1621. The parent compounds and their metabolites were detected by full scan mass analysis from m/z 150-1000 at a resolving power of 60,000 [at m/z 400, full width at half maximum (FWHM); 1-s acquisition] with data-dependent MS/MS analyses triggered by the most abundant ion. […] The data obtained was analyzed using Xcalibur v2.1 software (ThermoScientific; Waltham Mass.). Four-decimal monoisotopic masses of the parent compounds and their oxidative metabolites calculated using ChemBioDraw Ultra software version 11.0 (CambridgeSoft; Cambridge, Mass.) were used to interpret further the fragment ions.

[3] = system: PrP^Sc in dividing ScN2a-cl3 cells; type: cell-based, mouse
[4] = Fraction unbound in cell-culture media; type: in vitro ADME; settings: 1 μM; mean ± SD, n = 3
[5] = CYP phenotyping in human liver microsomes, no inhibitor (negative control, maximum metabolism); type: in vitro ADME
CYP2D6 = molecular target: T1, CYP2D6 (Homo sapiens, UniProt P10635); test: CYP phenotyping in human liver microsomes, quinidine; type: in vitro ADME; settings: for CYP Involvement: CYP2D6, NADPH + Quinidine; for % Disappearance / Measured Conc. / Δ % Disappearance: reversible incubation condition, NADPH + Quinidine
T1 construct: tissue BD Biosciences; host or cells: pooled human liver microsomes
T1 sequence (P10635 whole entry): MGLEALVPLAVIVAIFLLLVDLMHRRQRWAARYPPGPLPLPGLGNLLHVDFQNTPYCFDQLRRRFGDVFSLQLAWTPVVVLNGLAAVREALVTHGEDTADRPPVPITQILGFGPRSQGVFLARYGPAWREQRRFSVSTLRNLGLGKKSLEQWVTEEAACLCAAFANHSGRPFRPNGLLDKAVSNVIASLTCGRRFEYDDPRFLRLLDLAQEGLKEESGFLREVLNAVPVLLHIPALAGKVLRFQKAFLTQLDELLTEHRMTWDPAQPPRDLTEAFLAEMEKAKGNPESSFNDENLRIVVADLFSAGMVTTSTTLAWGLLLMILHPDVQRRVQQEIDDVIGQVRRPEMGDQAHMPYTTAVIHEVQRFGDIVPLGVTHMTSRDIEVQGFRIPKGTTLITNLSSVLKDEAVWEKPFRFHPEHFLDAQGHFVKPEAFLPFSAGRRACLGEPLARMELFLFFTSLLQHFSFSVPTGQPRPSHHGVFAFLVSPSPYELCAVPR

[6] = 1 and 10 μM
in vitro [7] = settings: FVB, mouse, 20% brain homogenate, pH 7.4, nonbound free fraction in brain, 1 and 10 μM
in vitro [8] = settings: mouse, 20% brain homogenate
Binding in mouse plasma = settings: for Percentage binding, Mouse plasma, 1 μM / Unbound (%), Mouse Plasma: 1 μM; for Unbound (%), Mouse Plasma: mean ± SD, n = 3 (warfarin n = 2)
Binding in human plasma = settings: for Percentage binding, Human plasma, 1 μM / Unbound (%), Human Plasma: 1 μM; for Unbound (%), Human Plasma: mean ± SD, n = 3 (warfarin n = 2)
[9] = Table 29, 2-AMT analogs tested for potency, usually n = 3 or more
[10] = irreversible incubation condition, maximum metabolism, NADPH/No Inhibitor
[11] = irreversible incubation condition, negative control, No NADPH/No Inhibitor
[12] = reversible incubation condition, maximum metabolism, NADPH/No Inhibitor
[13] = reversible incubation condition, negative control, No NADPH/No Inhibitor

Row | SMILES | P-gp substrate status, absorptive vs secretory permeability [1] | major metabolites [2] | EC50 ([3]; AMT analogs tested for potency) | EC50 [3, 9] | Unbound (%), Cell-culture Media [4] | % Disappearance [5, 10] | Measured Conc. [5, 10] | Δ % Disappearance [5, 10] | Measured Conc. [5, 11] | % Disappearance [5, 12] | Measured Conc. [5, 12] | Δ % Disappearance [5, 12] | % Disappearance [5, 13] | Measured Conc. [5, 13] | CYP Involvement (CYP2D6) | % Disappearance (CYP2D6) | Measured Conc. (CYP2D6) | Δ % Disappearance (CYP2D6) | brain tissue binding [6] | fraction unbound at 4 h (in vitro [7]) | other results
1 | Cc1cccc(Nc2nc(-c3ccc(-c4ccccc4)cc3)cs2)n1 [IND24, (4-Biphenyl-4-yl-thiazol-2-yl)-(6-methyl-pyridin-2-yl)-amine] | not substrates | ring hydroxylation | 1270 nM | 1270 nM | 25.7 ± 4.93% | 0 (−18) % | 0.733 µM | 0% | 0.622 µM | 0% | 0.655 µM | 0% | 0% | 0.654 µM | Unlikely (unlikely for values <5) | 15% | 0.555 µM | 0 (−15) % | 92-93% | 0.06 to 0.09 | fraction unbound (in vitro [8]): 0.07 to 0.08; Percentage binding, Rat plasma, 1 μM (Binding in rat plasma): 93.4 ± 2.13%; Percentage binding, Rat plasma, 10 μM (Binding in rat plasma): 94.0 ± 1.04%; Percentage binding, Mouse plasma, 1 μM (Binding in mouse plasma): 93.4 ± 1.55%; Unbound (%), Mouse Plasma (Binding in mouse plasma): 6.63 ± 1.55%; Percentage binding, Mouse plasma, 10 μM (Binding in mouse plasma): 95.8 ± 0.14%; Percentage binding, Human plasma, 1 μM (Binding in human plasma): 95.1 ± 1.03%; Unbound (%), Human Plasma (Binding in human plasma): 4.91 ± 1.03%; Percentage binding, Human plasma, 10 μM (Binding in human plasma): 95.4 ± 1.17%
2 | Cc1ccc(Nc2nc(-c3cc(-c4ccccc4)no3)cs2)nc1 [IND33, (5-Methyl-pyridin-2-yl)-[4-(3-phenyl-isoxazol-5-yl)-thiazol-2-yl]-amine] |  |  | 940 nM | 940 nM |  |  |  |  |  |  |  |  |  |  |  |  |  |  |  |  | 
3 | COc1ccc(-c2csc(Nc3ccc4ccccc4n3)n2)cc1OC [IND47, [4-(3,4-Dimethoxy-phenyl)-thiazol-2-yl]-quinolin-2-yl-amine] |  |  | 426 nM | 426 nM |  |  |  |  |  |  |  |  |  |  |  |  |  |  |  |  | 
4 | Cc1ccnc(Nc2nc(-c3ccncc3)cs2)c1 [IND52, (4-Methyl-pyridin-2-yl)-(4-pyridin-4-yl-thiazol-2-yl)-amine] |  |  | 4950 nM | 4950 nM |  |  |  |  |  |  |  |  |  |  |  |  |  |  |  |  | 
5 | Cc1ccnc(Nc2nc(-c3ccc(-c4ccccn4)s3)cs2)c1 [IND81, (4-Methyl-pyridin-2-yl)-[4-(5-pyridin-2-yl-thiophen-2-yl)-thiazol-2-yl]-amine] | not substrates | ring hydroxylation |  |  | 23.2 ± 2.68% | 84% | 0.143 µM | 0% | 0.899 µM | 66% | 0.226 µM | 0% | 0% | 0.664 µM | Likely (likely for values >10) | 55% | 0.300 µM | 11% | ~90% | 0.06 to 0.09 | % Disappearance [5, 11]: 0%; fraction unbound (in vitro [8]): 0.09; Percentage binding, Rat plasma, 1 μM (Binding in rat plasma): 94.2 ± 0.48%; Percentage binding, Rat plasma, 10 μM (Binding in rat plasma): 95.5 ± 0.66%; Percentage binding, Mouse plasma, 1 μM (Binding in mouse plasma): 93.5 ± 1.10%; Unbound (%), Mouse Plasma (Binding in mouse plasma): 6.48 ± 1.10%; Percentage binding, Mouse plasma, 10 μM (Binding in mouse plasma): 96.0 ± 0.04%; Percentage binding, Human plasma, 1 μM (Binding in human plasma): 94.2 ± 3.21%; Unbound (%), Human Plasma (Binding in human plasma): 5.78 ± 3.21%; Percentage binding, Human plasma, 10 μM (Binding in human plasma): 95.2 ± 0.86%
6 | c1ccc2cc(Nc3nc(-c4ccncc4)cs3)ncc2c1 [IND85, Isoquinolin-3-yl-(4-pyridin-4-yl-thiazol-2-yl)-amine] |  |  | 307 nM | 307 nM |  |  |  |  |  |  |  |  |  |  |  |  |  |  |  |  | 

Source: US20140329863A1 (priority 2011, published 2014)
